Results: US20240002350A1, “PROTEIN AND LIPID THERAPEUTIC TARGETS” (UNIVERSITY OF PITTSBURGH-OF THE COMMONWEALTH SYSTEM OF …, priority 2020, published 2024)

system: 15LOX/PEBP1; assay: Potency of 15LOX/PEBP1 inhibitors with anti-ferroptotic effect (Table 1); type: cell-based
Description: Development and testing of new compounds that inhibit 15LOX/PEBP1 complex activity. A combination of computational and experimental studies are used. […] Computer modeling considers specific features of organization of 15LOX/PEBP1 complexes and positioning of AA-PE as well as regio-specific oxygenation of AA-residues at 15th carbon. […] It has been shown that: i) binding interface of 15LOX in 15LOX/PEBP1 complex includes a helix on 15LOX (α2) and kinase binding epitope (D144, H145, R146) on PEBP1 (FIG. 8); and ii) interfacial interactions play a pivotal role in allosterically altering conformational dynamics of 15LOX in complex, and its substrate specificity. Analysis of change in access to catalytic site upon PEBP1 binding, using elastic network models indicates needed sites at 15LOX/PEBP1 binding interface. Dynamics simulations are also performed, for 15LOX alone and 15LOX/PEBP1 complex. An effective inhibitor, NCG-01, with in vivo activity has been indicated. Several other 15LOX/PEBP1 inhibitors with anti-ferroptotic effect (FIG. 9) have been identified. To test the effectiveness of compounds identified from the computational screen, RSL3 and mechanical stretch models with LDH and PI assays as a primary outcome are performed. The compounds that inhibit cell death by at least 50% are then evaluated for their effects on AA-PE and AA oxidation by 15LOX/PEBP1 complex and 15LOX alone, respectively, by LC-MS. Evaluation of the effect of compounds in suppressing AA-PE-OOH formation in cells upon proferroptotic stimuli is also performed.

Question: Which Potency does the source give for `FC(F)(F)c1ccc(-c2cn(-c3ccccc3)c(SCc3ccccc3)n2)cc1` [Compound 4, 2-(benzylthio)-1-phenyl-4-(4-(trifluoromethyl)phenyl)-1H-imidazole] here?
Answer: + (+ > 1 μM)

Question: With `FC(F)(F)c1ccc(CSc2nc(-c3ccc(C(F)(F)F)cc3)cn2-c2ccccc2)cc1` [Compound 6, 1-phenyl-2-((4-(trifluoromethyl)benzyl)thio)-4-(4-(trifluoromethyl)phenyl)-1H-imidazole] as the compound, how does the Potency read?
Answer: + (+ > 1 μM)

Question: For `Fc1ccc(-n2cc(-c3ccccc3)nc2SCc2ccc(C(F)(F)F)cc2)cc1` [Compound 11, 1-(4-fluorophenyl)-4-phenyl-2-((4-(trifluoromethyl)benzyl)thio)-1H-imidazole], which Potency is on record?
Answer: + (+ > 1 μM)

Question: Which Potency does the source give for `FC(F)(F)c1ccc(CSc2nc(-c3ccccc3)cn2-c2ccc(Cl)cc2)cc1` [Compound 13, 1-(4-chlorophenyl)-4-phenyl-2-((4-(trifluoromethyl)benzyl)thio)-1H-imidazole] here?
Answer: + (+ > 1 μM)

Question: Which Potency does the source give for `Fc1ccccc1-n1cc(-c2ccccc2)nc1SCc1ccc(C(F)(F)F)cc1` [Compound 14, 1-(2-fluorophenyl)-4-phenyl-2-((4-(trifluoromethyl)benzyl)thio)-1H-imidazole] here?
Answer: + (+ > 1 μM)

Question: Which Potency does the source give for `Cc1ccc(-n2cc(-c3ccccc3)nc2SCc2ccc(C(F)(F)F)cc2)cc1` [Compound 16, 4-phenyl-1-(p-tolyl)-2-((4-(trifluoromethyl)benzyl)thio)-1H-imidazole] here?
Answer: + (+ > 1 μM)

Question: How did the Potency turn out when `FC(F)(F)c1ccc(CSc2nc(-c3ccccc3)cn2-c2cccc(Cl)c2)cc1` [Compound 17, 1-(3-chlorophenyl)-4-phenyl-2-((4-(trifluoromethyl)benzyl)thio)-1H-imidazole] was run?
Answer: + (+ > 1 μM)

Question: For `FC(F)(F)c1ccc(CSc2nc(-c3ccccc3)cn2-c2ccccc2)cc1` [Compound 20, 1,4-diphenyl-2-((4-(trifluoromethyl)benzyl)thio)-1H-imidazole], which Potency is on record?
Answer: + (+ > 1 μM)

Question: Which Potency does the source give for `Fc1cc(F)cc(-n2cc(-c3ccccc3)nc2SCc2ccc(C(F)(F)F)cc2)c1` [Compound 21, 1-(3,5-difluorophenyl)-4-phenyl-2-((4-(trifluoromethyl)benzyl)thio)-1H-imidazole] here?
Answer: dead

Question: Which Potency does the source give for `Cc1cccc(-n2cc(-c3ccccc3)nc2SCc2ccc(C(F)(F)F)cc2)c1` [Compound 22, 4-phenyl-1-(m-tolyl)-2-((4-(trifluoromethyl)benzyl)thio)-1H-imidazole] here?
Answer: + (+ > 1 μM)

Question: Which Potency does the source give for `C[S+](=O)([O-])c1cccc(-n2cc(-c3ccccc3)nc2SCc2ccc(C(F)(F)F)cc2)c1` [Compound 23, 1-(3-(methylsulfonyl)phenyl)-4-phenyl-2-((4-(trifluoromethyl)benzyl)thio)-1H-imidazole] here?
Answer: + (+ > 1 μM)

Question: For `FC(F)(F)c1ccc(CSc2nc(-c3ccccc3)cn2-c2cccc(Br)c2)cc1` [Compound 24, 1-(3-bromophenyl)-4-phenyl-2-((4-(trifluoromethyl)benzyl)thio)-1H-imidazole], which Potency is on record?
Answer: + (+ > 1 μM)

Question: How did the Potency turn out when `FC(F)(F)c1ccc(CSc2nc(-c3ccccc3)cn2-c2cccc(C(F)(F)F)c2)cc1` [Compound 25, 4-phenyl-2-((4-(trifluoromethyl)benzyl)thio)-1-(3-(trifluoromethyl)phenyl)-1H-imidazole] was run?
Answer: + (+ > 1 μM)

Question: For `Fc1cccc(-n2cc(-c3ccccc3)nc2SCc2ccc(C3(C(F)(F)F)N=N3)cc2)c1` [Compound 26, 1-(3-fluorophenyl)-4-phenyl-2-((4-(3-(trifluoromethyl)-3H-diazirin-3-yl)benzyl)thio)-1H-imidazole], which Potency is on record?
Answer: + (+ > 1 μM)

Question: How did the Potency turn out when `Fc1cccc(-n2cc(-c3ccc(Br)cc3)nc2SCc2ccccc2)c1` [Compound 27, 2-(benzylthio)-4-(4-bromophenyl)-1-(3-fluorophenyl)-1H-imidazole] was run?
Answer: + (+ > 1 μM)

Question: With `FC(F)Oc1cccc(-n2cc(-c3ccccc3)nc2SCc2ccc(C(F)(F)F)cc2)c1` [Compound 28, 1-(3-(difluoromethoxy)phenyl)-4-phenyl-2-((4-(trifluoromethyl)benzyl)thio)-1H-imidazole] as the compound, how does the Potency read?
Answer: + (+ > 1 μM)

Question: For `COc1cccc(-n2cc(-c3ccccc3)nc2SCc2ccc(C(F)(F)F)cc2)c1` [Compound 29, 1-(3-methoxyphenyl)-4-phenyl-2-((4-(trifluoromethyl)benzyl)thio)-1H-imidazole], which Potency is on record?
Answer: + (+ > 1 μM)

Question: With `FC(F)(F)Oc1cccc(-n2cc(-c3ccccc3)nc2SCc2ccc(C(F)(F)F)cc2)c1` [Compound 30, 4-phenyl-1-(3-(trifluoromethoxy)phenyl)-2-((4-(trifluoromethyl)benzyl)thio)-1H-imidazole] as the compound, how does the Potency read?
Answer: + (+ > 1 μM)

Question: For `O=C(Nc1nc(-c2ccccc2)cn1-c1cccc(F)c1)c1ccc(C(F)(F)F)cc1` [Compound 31, N-(1-(3-fluorophenyl)-4-phenyl-1H-imidazol-2-yl)-4-(trifluoromethyl)benzamide], which Potency is on record?
Answer: + (+ > 1 μM)

Question: How did the Potency turn out when `Fc1cccc(-n2cc(-c3ccccc3)nc2NCc2ccc(C(F)(F)F)cc2)c1` [Compound 32, 1-(3-fluorophenyl)-4-phenyl-N-(4-(trifluoromethyl)benzyl)-1H-imidazol-2-amine] was run?
Answer: ++ (++ = 101-1000 nM)

Question: With `Cc1ccc(CSc2nc(-c3ccccc3)cn2-c2cccc(F)c2)cc1` [Compound 33, 1-(3-fluorophenyl)-2-((4-methylbenzyl)thio)-4-phenyl-1H-imidazole] as the compound, how does the Potency read?
Answer: + (+ > 1 μM)

Question: For `Fc1cccc(-n2cc(-c3ccccc3)nc2SCc2ccc(Br)cc2)c1` [Compound 34, 2-((4-bromobenzyl)thio)-1-(3-fluorophenyl)-4-phenyl-1H-imidazole], which Potency is on record?
Answer: + (+ > 1 μM)

Question: `Fc1cccc(-n2cc(-c3ccccc3)nc2SCc2cccc(C(F)(F)F)c2)c1` [Compound 35, 1-(3-fluorophenyl)-4-phenyl-2-((3-(trifluoromethyl)benzyl)thio)-1H-imidazole] was tested. Which Potency did it give?
Answer: + (+ > 1 μM)

Question: `Fc1cccc(-n2cc(-c3ccccc3)nc2SCc2ccc(OC(F)(F)F)cc2)c1` [Compound 36, 1-(3-fluorophenyl)-4-phenyl-2-((4-(trifluoromethoxy)benzyl)thio)-1H-imidazole] was tested. Which Potency did it give?
Answer: + (+ > 1 μM)

Question: `Fc1cccc(-n2cc(-c3ccccc3)nc2SCc2ccccc2)c1` [Compound 37, 2-(benzylthio)-1-(3-fluorophenyl)-4-phenyl-1H-imidazole] was tested. Which Potency did it give?
Answer: + (+ > 1 μM)

Question: For `CC(Sc1nc(-c2ccccc2)cn1-c1cccc(F)c1)c1ccccc1` (stereo not shown) [Compound 38, 1-(3-fluorophenyl)-4-phenyl-2-((1-phenylethyl)thio)-1H-imidazole], which Potency is on record?
Answer: + (+ > 1 μM)

Question: `Fc1cccc(-n2cc(-c3ccccc3)nc2SCc2cccc(Cl)c2)c1` [Compound 39, 2-((3-chlorobenzyl)thio)-1-(3-fluorophenyl)-4-phenyl-1H-imidazole] was tested. Which Potency did it give?
Answer: + (+ > 1 μM)

Question: With `CS(=O)(=O)c1ccc(CSc2nc(-c3ccccc3)cn2-c2cccc(F)c2)cc1` [Compound 40, 1-(3-fluorophenyl)-2-((4-(methylsulfonyl)benzyl)thio)-4-phenyl-1H-imidazole] as the compound, how does the Potency read?
Answer: + (+ > 1 μM)

Question: How did the Potency turn out when `Fc1cccc(-n2cc(-c3ccccc3)nc2SCc2ccccc2C(F)(F)F)c1` [Compound 41, 1-(3-fluorophenyl)-4-phenyl-2-((2-(trifluoromethyl)benzyl)thio)-1H-imidazole] was run?
Answer: + (+ > 1 μM)

Question: For `Fc1cccc(-n2cc(-c3ccccc3)nc2SCc2ccc(Cl)cc2)c1` [Compound 42, 2-((4-chlorobenzyl)thio)-1-(3-fluorophenyl)-4-phenyl-1H-imidazole], which Potency is on record?
Answer: + (+ > 1 μM)

Question: With `Cc1cccc(CSc2nc(-c3ccccc3)cn2-c2cccc(F)c2)c1` [Compound 43, 1-(3-fluorophenyl)-2-((3-methylbenzyl)thio)-4-phenyl-1H-imidazole] as the compound, how does the Potency read?
Answer: + (+ > 1 μM)

Question: Which Potency does the source give for `NS(=O)(=O)c1ccc(CSc2nc(-c3ccccc3)cn2-c2cccc(F)c2)cc1` [Compound 44, 4-(((1-(3-fluorophenyl)-4-phenyl-1H-imidazol-2-yl)thio)methyl)benzenesulfonamide] here?
Answer: + (+ > 1 μM)

Question: With `CC(C)(C)c1ccc(CSc2nc(-c3ccccc3)cn2-c2cccc(F)c2)cc1` [Compound 45, 2-((4-(tert-butyl)benzyl)thio)-1-(3-fluorophenyl)-4-phenyl-1H-imidazole] as the compound, how does the Potency read?
Answer: + (+ > 1 μM)

Question: With `Fc1cccc(-n2cc(-c3ccccc3)nc2SCc2cccc(Br)c2)c1` [Compound 46, 2-((3-bromobenzyl)thio)-1-(3-fluorophenyl)-4-phenyl-1H-imidazole] as the compound, how does the Potency read?
Answer: + (+ > 1 μM)

Question: How did the Potency turn out when `CC(C)c1ccc(CSc2nc(-c3ccccc3)cn2-c2cccc(F)c2)cc1` [Compound 47, 1-(3-fluorophenyl)-2-((4-isopropylbenzyl)thio)-4-phenyl-1H-imidazole] was run?
Answer: + (+ > 1 μM)

Question: How did the Potency turn out when `Fc1cccc(-n2cc(-c3ccccc3)nc2SCc2ccc(C(F)(F)F)cc2F)c1` [Compound 48, 2-((2-fluoro-4-(trifluoromethyl)benzyl)thio)-1-(3-fluorophenyl)-4-phenyl-1H-imidazole] was run?
Answer: + (+ > 1 μM)

Question: Which Potency does the source give for `CC(=O)Nc1ccc(CSc2nc(-c3ccccc3)cn2-c2cccc(F)c2)cc1` [Compound 49, N-(4-(((1-(3-fluorophenyl)-4-phenyl-1H-imidazol-2-yl)thio)methyl)phenyl)acetamide] here?
Answer: + (+ > 1 μM)
